Laboratory results from patent publication US11111230B2 (ADLAI NORTYE BIOPHARMA CO., LTD., priority 2017, dated 2021).
pIC50: −log10 of the molar value.

Assays:
[1] = test system: Hela cells; experiment: Activity in Hela cells (interferon-γ induced, kynurenine readout with Ehrlich's reagent); format: cell-based; details: Homo sapiens, interferon-γ 50 ng/mL, tryptophan 16 mg/L, 48 hours, absorption at 480 nm
Experimental: Example 1: Study on the Activity of the Compound of the Present Invention in Hela Cells
Hela cells were seeded in 96-well culture plates and incubated at 37° C., 100% relative humidity, 5% CO2 incubator for 24 hours. The compound was dissolved in DMSO and diluted to an appropriate concentration, and then the compound was diluted 100-fold with DMEM medium containing interferon-γ and 10% fetal bovine serum to the final concentration of effect. Aspirate the old medium from the 96-well plate and add 200 μL of each medium containing compound and interferon-γ from the previous step. The content of tryptophan in the medium is 16 mg/L, and the concentration of interferon-γ is 50 ng/mL. The cells were placed in a 37° C., 100% relative humidity, and 5% CO2 incubator for 48 hours, then 140 μL of the cell culture supernatant was mixed with 15 μL of trichloroacetic acid, and placed at 52° C. for 30 min, then centrifuged at room temperature to take the centrifugal supernatant. Mix with an equal volume of Ehrlich's reagent, measure the light absorption at 480 nm, and calculate the IC50 values.

[2] = biological target: T1, human IDO1 protein (Homo sapiens, UniProt P14902); experiment: Activity in HEK293 cells highly expressing human IDO1 protein; format: cell-based; details: HEK293-IDO cells, tryptophan 16 mg/L, 24 hours, absorption at 480 nm; read-out: IC50 (HEK293 cell)
T1 construct: expressed in transfected cells; host or cells: HEK293
Experimental: Example 2: Study on the Activity of the Present Invention in HEK293 Cells Highly Expressing Human IDO1 Protein
HEK293-IDO cells with high expression of human IDO1 protein were prepared by electrotransformation, and the cells were seeded in 96-well culture plates, and cultured at 37° C., 100% relative humidity, and 5% CO2 incubator for 24 hours. Dissolve in DMSO and dilute to the appropriate concentration, then use DMEM medium containing 10% fetal bovine serum to dilute the candidate 100-fold to the final concentration. Aspirate the old medium from the 96-well plate and add 200 μL of the medium contained in the previous step to each well. The content of tryptophan in the medium is 16 mg/L. The cells were placed in a 37° C., 100% relative humidity, and 5% CO2 incubator for 24 hours. 140 μL of the cell culture supernatant was mixed with 15 μL of trichloroacetic acid and placed at 52° C. for 30 min. Mix with an equal volume of Ehrlich's reagent, measure the light absorption at 480 nm, and calculate the IC50 values.

T1 sequence (P14902 whole entry): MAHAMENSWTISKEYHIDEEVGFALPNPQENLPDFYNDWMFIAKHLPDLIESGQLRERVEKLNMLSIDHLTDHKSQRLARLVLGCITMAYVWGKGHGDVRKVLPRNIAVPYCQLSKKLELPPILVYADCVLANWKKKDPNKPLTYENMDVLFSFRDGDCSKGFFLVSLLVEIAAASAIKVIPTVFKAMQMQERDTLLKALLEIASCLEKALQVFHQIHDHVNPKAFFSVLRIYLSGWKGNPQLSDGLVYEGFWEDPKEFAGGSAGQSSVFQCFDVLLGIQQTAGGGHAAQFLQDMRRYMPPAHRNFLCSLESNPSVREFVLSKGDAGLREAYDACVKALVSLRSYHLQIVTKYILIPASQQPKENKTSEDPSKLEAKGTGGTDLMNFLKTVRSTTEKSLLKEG

pIC50 [1]	pIC50 [2]	Structure (SMILES)
8.00 to 10.00	8.00 to 10.00	COCCOc1ccc(NC(=O)[C@H]2C[C@]23CC[C@H](c2ccnc4cc(C)c(F)cc42)CC3)cc1 (single isomer, unassigned) [Compound 98]
< 7.00	< 7.00	O=C(NCCc1ccc(Cl)cc1)C1CC12CCC(c1ccnc3ccc(F)cc13)CC2 (stereo not shown) [Compound 4, N-(4-chlorophenethyl)-6-(6-fluoroquinolin-4-yl)spiro[2.5]octane-1-carboxamide]
< 7.00	7.00 to 8.00	O=C(Nc1ccc(C(F)(F)F)cc1)C1CC12CCC(c1ccnc3ccc(F)cc13)CC2 (stereo not shown) [Compound 5, 6-(6-fluoroquinolin-4-yl)-N-(4-(trifluoromethyl)phenyl)spiro[2.5]octane-1-carboxamide]
7.00 to 8.00	7.00 to 8.00	O=C(Nc1ccc(Cl)nc1)C1CC12CCC(c1ccnc3ccc(F)cc13)CC2 (stereo not shown) [Compound 7, N-(6-chloropyridin-3-yl)-6-(6-fluoroquinolin-4-yl)spiro[2.5]octane-1-carboxamide]
7.00 to 8.00	7.00 to 8.00	O=C(Nc1ccc(Cl)cn1)C1CC12CCC(c1ccnc3ccc(F)cc13)CC2 (stereo not shown) [Compound 8, N-(5-chloropyridin-2-yl)-6-(6-fluoroquinolin-4-yl)spiro[2.5]octane-1-carboxamide]
7.00 to 8.00	7.00 to 8.00	O=C(Nc1ccc(Cl)c(F)c1)C1CC12CCC(c1ccnc3ccc(F)cc13)CC2 (stereo not shown) [Compound 12, N-(4-chloro-3-fluorophenyl)-6-(6-fluoroquinolin-4-yl)spiro[2.5]octane-1-carboxamide]
8.00 to 10.00	–	O=S(=O)(Nc1ccc(Cl)cc1)C1CC12CCC(c1ccnc3ccc(F)cc13)CC2 (stereo not shown) [Compound 14, N-(4-chlorophenyl)-6-(6-fluoroquinolin-4-yl)spiro[2.5]octane-1-sulfonamide]
8.00 to 10.00	–	O=S(=O)(Nc1ccc(C(F)(F)F)cc1)C1CC12CCC(c1ccnc3ccc(F)cc13)CC2 (stereo not shown) [Compound 16]
7.00 to 8.00	–	N#Cc1ccc(NC(=O)C2COC23CCC(c2ccnc4ccc(F)cc24)CC3)cc1 (stereo not shown) [Compound 55]
8.00 to 10.00	–	Cc1cc2nccc(C3CCC4(CC3)CC4C(=O)Nc3ccc(F)cc3)c2cc1F (stereo not shown) [Compound 80, 6-(6-fluoro-7-methylquinolin-4-yl)-N-(4-fluorophenyl)spiro[2.5]octane-1-carboxamide]
8.00 to 10.00	–	Cc1cc2nccc(C3CCC4(CC3)CC4C(=O)Nc3ccc(C#N)cc3)c2cc1F (stereo not shown) [Compound 81]
8.00 to 10.00	–	COc1ccc(NC(=O)C2CC23CCC(c2ccnc4cc(C)c(F)cc24)CC3)cc1 (stereo not shown) [Compound 84]
8.00 to 10.00	–	Cc1cc2nccc(C3CCC4(CC3)CC4C(=O)Nc3ccc(Br)cc3)c2cc1F (stereo not shown) [Compound 85]
< 7.00	–	CN1CC(C(=O)Nc2ccc(Cl)cc2)C2(CCC(c3ccnc4ccc(F)cc34)CC2)C1 (stereo not shown) [Compound 87, N-(4-chlorophenyl)-8-(6-fluoroquinolin-4-yl)-2-methyl-2-azaspiro[4.5]decane-4-carboxamide]
< 7.00	–	CN1CC(C(=O)Nc2ccc(F)cc2)C2(CCC(c3ccnc4ccc(F)cc34)CC2)C1 (stereo not shown) [Compound 88]

More lines, now with the values behind:

Structure (SMILES)	pIC50 [1]	pIC50 [2]
O=C(Nc1ccc(Cl)cc1)[C@H]1CC12CCC(c1ccnc3ccc(F)cc13)CC2 (single isomer, unassigned) [Compound 10a]	8.00 to 10.00	8.00 to 10.00
O=C(Nc1ccc(Cl)cc1)[C@@H]1CC12CCC(c1ccnc3ccc(F)cc13)CC2 (single isomer, unassigned) [Compound 10b]	< 7.00	< 7.00
Cc1cc2nccc([C@H]3CC[C@@]4(CC3)C[C@@H]4C(=O)Nc3ccc(Cl)cc3)c2cc1F (single isomer, unassigned) [Compound 92]	8.00 to 10.00	8.00 to 10.00
Cc1cc2nccc([C@H]3CC[C@@]4(CC3)C[C@H]4C(=O)Nc3ccc(Cl)cc3)c2cc1F (single isomer, unassigned) [Compound 93]	< 7.00	< 7.00
COCCOc1ccc(NC(=O)[C@@H]2C[C@]23CC[C@H](c2ccnc4cc(C)c(F)cc42)CC3)cc1 (single isomer, unassigned) [Compound 99]	< 7.00	< 7.00
COc1cc2nccc([C@H]3CC[C@@]4(CC3)C[C@@H]4C(=O)Nc3ccc(Cl)cc3)c2cc1F (single isomer, unassigned) [Compound 108]	8.00 to 10.00	8.00 to 10.00
COc1cc2nccc([C@H]3CC[C@@]4(CC3)C[C@H]4C(=O)Nc3ccc(Cl)cc3)c2cc1F (single isomer, unassigned) [Compound 109]	< 7.00	< 7.00
O=C(Nc1ccc(Cl)cc1)C1CC12CCC(c1ccnc3ccc(F)cc13)CC2 (stereo not shown) [Compound 1, N-(4-chlorophenyl)-6-(6-fluoroquinolin-4-yl)spiro[2.5]octane-1-carboxamide]	8.00 to 10.00	7.00 to 8.00
O=C(Nc1ccc(F)cc1)C1CC12CCC(c1ccnc3ccc(F)cc13)CC2 (stereo not shown) [Compound 2, N-(4-fluorophenyl)-6-(6-fluoroquinolin-4-yl)spiro[2.5]octane-1-carboxamide]	7.00 to 8.00	7.00 to 8.00
O=C(NCc1ccc(Cl)cc1)C1CC12CCC(c1ccnc3ccc(F)cc13)CC2 (stereo not shown) [Compound 3, N-(4-chlorobenzyl)-6-(6-fluoroquinolin-4-yl)spiro[2.5]octane-1-carboxamide]	< 7.00	< 7.00
N#Cc1ccc(NC(=O)C2CC23CCC(c2ccnc4ccc(F)cc24)CC3)cc1 (stereo not shown) [Compound 6, N-(4-cyanophenyl)-6-(6-fluoroquinolin-4-yl)spiro[2.5]octane-1-carboxamide]	7.00 to 8.00	7.00 to 8.00
Cc1cc2nccc(C3CCC4(CC3)CC4C(=O)Nc3ccc(Cl)cc3)c2cc1F (stereo not shown) [Compound 9, N-(4-chlorophenyl)-6-(6-fluoro-7-methylquinolin-4-yl)spiro[2.5]octane-1-carboxamide]	8.00 to 10.00	8.00 to 10.00
O=C(Nc1ccc(Br)cc1)C1CC12CCC(c1ccnc3ccc(F)cc13)CC2 (stereo not shown) [Compound 11, N-(4-bromophenyl)-6-(6-fluoroquinolin-4-yl)spiro[2.5]octane-1-carboxamide]	8.00 to 10.00	7.00 to 8.00
O=S(=O)(Nc1ccc(F)cc1)C1CC12CCC(c1ccnc3ccc(F)cc13)CC2 (stereo not shown) [Compound 15]	8.00 to 10.00	–
COc1ccc(NS(=O)(=O)C2CC23CCC(c2ccnc4ccc(F)cc24)CC3)cc1 (stereo not shown) [Compound 17]	8.00 to 10.00	–
Cc1ccc(NS(=O)(=O)C2CC23CCC(c2ccnc4ccc(F)cc24)CC3)cc1 (stereo not shown) [Compound 18]	8.00 to 10.00	–
N#Cc1ccc(NS(=O)(=O)C2CC23CCC(c2ccnc4ccc(F)cc24)CC3)cc1 (stereo not shown) [Compound 19]	8.00 to 10.00	–
Cc1ccc(NC(=O)N2CC23CCC(c2ccnc4ccc(F)cc24)CC3)cc1 (stereo not shown) [Compound 24]	< 7.00	–
O=C(Nc1ccc(Cl)cc1)C1COC12CCC(c1ccnc3ccc(F)cc13)CC2 (stereo not shown) [Compound 50, N-(4-chlorophenyl)-7-(6-fluoroquinolin-4-yl)-1-oxaspiro[3.5]nonane-3-carboxamide]	7.00 to 8.00	–
O=C(Nc1ccc(F)cc1)C1COC12CCC(c1ccnc3ccc(F)cc13)CC2 (stereo not shown) [Compound 51]	7.00 to 8.00	–
O=C(Nc1ccc(C(F)(F)F)cc1)C1COC12CCC(c1ccnc3ccc(F)cc13)CC2 (stereo not shown) [Compound 52]	7.00 to 8.00	–
COc1ccc(NC(=O)C2COC23CCC(c2ccnc4ccc(F)cc24)CC3)cc1 (stereo not shown) [Compound 53]	7.00 to 8.00	–
Cc1ccc(NC(=O)C2COC23CCC(c2ccnc4ccc(F)cc24)CC3)cc1 (stereo not shown) [Compound 54]	7.00 to 8.00	–
Cc1cc2nccc(C3CCC4(CC3)CC4C(=O)Nc3ccc(C(F)(F)F)cc3)c2cc1F (stereo not shown) [Compound 82]	8.00 to 10.00	–
Cc1ccc(NC(=O)C2CC23CCC(c2ccnc4cc(C)c(F)cc24)CC3)cc1 (stereo not shown) [Compound 83]	8.00 to 10.00	–
Cc1cc2nccc(C3CCC4(CC3)CC4C(=O)Nc3ccc(Cl)c(F)c3)c2cc1F (stereo not shown) [Compound 86]	8.00 to 10.00	–
CN1CC(C(=O)Nc2ccc(C(F)(F)F)cc2)C2(CCC(c3ccnc4ccc(F)cc34)CC2)C1 (stereo not shown) [Compound 89]	< 7.00	–
CN1CC(C(=O)Nc2ccc(Br)cc2)C2(CCC(c3ccnc4ccc(F)cc34)CC2)C1 (stereo not shown) [Compound 90]	< 7.00	–
CN1CC(C(=O)Nc2ccc(C#N)cc2)C2(CCC(c3ccnc4ccc(F)cc34)CC2)C1 (stereo not shown) [Compound 91]	< 7.00	–
COCc1cc2nccc(C3CCC4(CC3)CC4C(=O)Nc3ccc(Cl)cc3)c2cc1F (stereo not shown) [Compound 115, N-(4-chlorophenyl)-6-(6-fluoro-7-(methoxymethyl)quinolin-4-yl)spiro[2.5]octane-1-carb oxamide]	8.00 to 10.00	–
